# Data: patent US20210267944A1 (BioXcel Therapeutics, Inc., priority 2018, published 2021)
# Structures can show the parent of a compound that is named as a salt. Where two headings read alike, the source gives them in different places.
# Conditions: for Diastolic blood pressure Max / Diastolic blood pressure Mean ± SD / Diastolic blood pressure Median / Diastolic blood pressure Min / Pulse rate, Max / Pulse rate, Mean ± SD / Pulse rate, Median / Pulse rate, Min / Respiration rate, Max / Respiration rate, Mean ± SD / Respiration rate, Median / Respiration rate, Min / Systolic blood pressure, Max / Systolic blood pressure, Mean ± SD / Systolic blood pressure, Median / Systolic blood pressure, Min: SDAT patients, IV infusion
# Method: Study drug IV infusion was to be stopped at any time if any of the following occurred: • There was more than 20 mm Hg decrease in systolic or diastolic blood pressure. • There was an isolated drop in Systolic BP<100 mm of Hg. • There was an isolated drop Diastolic BP<60 mm of Hg. • There was a decrease in heart rate of 20 beats per minute or a drop below 50 beats per minute. • Attainment of a RASS of −1 at the end of each 30 minutes infusion period.
# Return to baseline parameters was defined as BP falling within 15 mm of Hg of baseline reading prior to drug administration or HR falling within 10 beats per minute of baseline reading prior to drug administration.
smiles,measurement,setting,value
Cc1cccc([C@H](C)c2cnc[nH]2)c1C [dexmedetomidine hydrochloride],all the vital signs values,SDAT,within clinically acceptable limits
same,Diastolic blood pressure Max,00:00 Hr,90 mm of Hg
same,Diastolic blood pressure Mean ± SD,00:00 Hr,80.9 ± 9.87 mm of Hg
same,Diastolic blood pressure Median,00:00 Hr,83.5 mm of Hg
same,Diastolic blood pressure Min,00:00 Hr,64 mm of Hg
same,"Pulse rate, Max",00:00 Hr,91 beats/min
same,"Pulse rate, Mean ± SD",00:00 Hr,79.0 ± 9.02 beats/min
same,"Pulse rate, Median",00:00 Hr,78.0 beats/min
same,"Pulse rate, Min",00:00 Hr,64 beats/min
same,"Respiration rate, Max",00:00 Hr,26 breaths/min
same,"Respiration rate, Mean ± SD",00:00 Hr,19.6 ± 2.50 breaths/min
same,"Respiration rate, Median",00:00 Hr,19.5 breaths/min
same,"Respiration rate, Min",00:00 Hr,17 breaths/min
same,"Systolic blood pressure, Max",00:00 Hr,169 mm of Hg
same,"Systolic blood pressure, Mean ± SD",00:00 Hr,143.2 ± 13.60 mm of Hg
same,"Systolic blood pressure, Median",00:00 Hr,140.0 mm of Hg
same,"Systolic blood pressure, Min",00:00 Hr,125 mm of Hg
same,Diastolic blood pressure Max,00:15 Hr,92 mm of Hg
same,Diastolic blood pressure Mean ± SD,00:15 Hr,82.1 ± 8.46 mm of Hg
same,Diastolic blood pressure Median,00:15 Hr,84.0 mm of Hg
same,Diastolic blood pressure Min,00:15 Hr,70 mm of Hg
same,"Pulse rate, Max",00:15 Hr,89 beats/min
same,"Pulse rate, Mean ± SD",00:15 Hr,78.2 ± 9.85 beats/min
same,"Pulse rate, Median",00:15 Hr,80.0 beats/min
same,"Pulse rate, Min",00:15 Hr,57 beats/min
same,"Respiration rate, Max",00:15 Hr,26 breaths/min
same,"Respiration rate, Mean ± SD",00:15 Hr,18.3 ± 3.20 breaths/min
same,"Respiration rate, Median",00:15 Hr,17.0 breaths/min
same,"Respiration rate, Min",00:15 Hr,15 breaths/min
same,"Systolic blood pressure, Max",00:15 Hr,155 mm of Hg
same,"Systolic blood pressure, Mean ± SD",00:15 Hr,138.0 ± 10.35 mm of Hg
same,"Systolic blood pressure, Median",00:15 Hr,134.5 mm of Hg
same,"Systolic blood pressure, Min",00:15 Hr,122 mm of Hg
same,Diastolic blood pressure Max,00:30 Hr,89 mm of Hg
same,Diastolic blood pressure Mean ± SD,00:30 Hr,80.3 ± 7.99 mm of Hg
same,Diastolic blood pressure Median,00:30 Hr,82.5 mm of Hg
same,Diastolic blood pressure Min,00:30 Hr,66 mm of Hg
same,"Pulse rate, Max",00:30 Hr,94 beats/min
same,"Pulse rate, Mean ± SD",00:30 Hr,80.5 ± 10.43 beats/min
same,"Pulse rate, Median",00:30 Hr,76.5 beats/min
same,"Pulse rate, Min",00:30 Hr,64 beats/min
same,"Respiration rate, Max",00:30 Hr,24 breaths/min
same,"Respiration rate, Mean ± SD",00:30 Hr,18.1 ± 2.73 breaths/min
same,"Respiration rate, Median",00:30 Hr,18.0 breaths/min
same,"Respiration rate, Min",00:30 Hr,13 breaths/min
same,"Systolic blood pressure, Max",00:30 Hr,155 mm of Hg
same,"Systolic blood pressure, Mean ± SD",00:30 Hr,135.9 ± 10.05 mm of Hg
same,"Systolic blood pressure, Median",00:30 Hr,133.5 mm of Hg
same,"Systolic blood pressure, Min",00:30 Hr,120 mm of Hg
same,Diastolic blood pressure Max,00:45 Hr,86 mm of Hg
same,Diastolic blood pressure Mean ± SD,00:45 Hr,76.4 ± 9.42 mm of Hg
same,Diastolic blood pressure Median,00:45 Hr,79.0 mm of Hg
same,Diastolic blood pressure Min,00:45 Hr,62 mm of Hg
same,"Pulse rate, Max",00:45 Hr,90 beats/min
same,"Pulse rate, Mean ± SD",00:45 Hr,76.0 ± 9.48 beats/min
same,"Pulse rate, Median",00:45 Hr,77.0 beats/min
same,"Pulse rate, Min",00:45 Hr,58 beats/min
same,"Respiration rate, Max",00:45 Hr,20 breaths/min
same,"Respiration rate, Mean ± SD",00:45 Hr,18.1 ± 1.91 breaths/min
same,"Respiration rate, Median",00:45 Hr,18.0 breaths/min
same,"Respiration rate, Min",00:45 Hr,15 breaths/min
same,"Systolic blood pressure, Max",00:45 Hr,160 mm of Hg
same,"Systolic blood pressure, Mean ± SD",00:45 Hr,138.3 ± 14.29 mm of Hg
same,"Systolic blood pressure, Median",00:45 Hr,137.0 mm of Hg
same,"Systolic blood pressure, Min",00:45 Hr,118 mm of Hg
same,Diastolic blood pressure Max,01:00 Hr,90 mm of Hg
same,Diastolic blood pressure Mean ± SD,01:00 Hr,74.5 ± 8.97 mm of Hg
same,Diastolic blood pressure Median,01:00 Hr,73.5 mm of Hg
same,Diastolic blood pressure Min,01:00 Hr,63 mm of Hg
same,"Pulse rate, Max",01:00 Hr,89 beats/min
same,"Pulse rate, Mean ± SD",01:00 Hr,75.3 ± 10.08 beats/min
same,"Pulse rate, Median",01:00 Hr,74.0 beats/min
same,"Pulse rate, Min",01:00 Hr,60 beats/min
same,"Respiration rate, Max",01:00 Hr,20 breaths/min
same,"Respiration rate, Mean ± SD",01:00 Hr,18.1 ± 1.73 breaths/min
same,"Respiration rate, Median",01:00 Hr,18.0 breaths/min
same,"Respiration rate, Min",01:00 Hr,15 breaths/min
same,"Systolic blood pressure, Max",01:00 Hr,160 mm of Hg
same,"Systolic blood pressure, Mean ± SD",01:00 Hr,134.4 ± 15.76 mm of Hg
same,"Systolic blood pressure, Median",01:00 Hr,133.0 mm of Hg
same,"Systolic blood pressure, Min",01:00 Hr,110 mm of Hg
same,Diastolic blood pressure Max,01:15 Hr,84 mm of Hg
same,Diastolic blood pressure Mean ± SD,01:15 Hr,74.6 ± 10.17 mm of Hg
same,Diastolic blood pressure Median,01:15 Hr,79.5 mm of Hg
same,Diastolic blood pressure Min,01:15 Hr,61 mm of Hg
same,"Pulse rate, Max",01:15 Hr,94 beats/min
same,"Pulse rate, Mean ± SD",01:15 Hr,73.4 ± 11.56 beats/min
same,"Pulse rate, Median",01:15 Hr,71.5 beats/min
same,"Pulse rate, Min",01:15 Hr,58 beats/min
same,"Respiration rate, Max",01:15 Hr,20 breaths/min
same,"Respiration rate, Mean ± SD",01:15 Hr,18.4 ± 2.20 breaths/min
same,"Respiration rate, Median",01:15 Hr,19.5 breaths/min
